From patent publication US20070112042A1, “Topical agent for application to the skin prior to luminous treatment” (priority 2003, published 2007)

System: dermal collagen production
Conditions: topical Niacin plus 585 nm pulsed dye laser irradiation versus irradiation alone
Source text: Tests have been carried out for studying the dermal collagen production following topical application of Niacin prior to irradiation with a 585 nm pulsed dye laser.

With `O=C(O)c1cccnc1` [Niacin, nicotinic acid] the “PIIINP levels (biochemical analysis)” value was “increase in the PIIINP levels above that of irradiation alone”.
